Source: US9718774B2, “Indole carboxamide derivatives as P2X7 receptor antagonist” (ACTELION PHARMACEUTICALS LTD, priority 2012, dated 2017)
Structures can show the parent of a compound that is named as a salt.

Biological target: T1, human recombinant P2X7 receptor (Homo sapiens, UniProt Q99572)
T1 construct: expressed in transfected cells
T1 sequence (Q99572 1-595): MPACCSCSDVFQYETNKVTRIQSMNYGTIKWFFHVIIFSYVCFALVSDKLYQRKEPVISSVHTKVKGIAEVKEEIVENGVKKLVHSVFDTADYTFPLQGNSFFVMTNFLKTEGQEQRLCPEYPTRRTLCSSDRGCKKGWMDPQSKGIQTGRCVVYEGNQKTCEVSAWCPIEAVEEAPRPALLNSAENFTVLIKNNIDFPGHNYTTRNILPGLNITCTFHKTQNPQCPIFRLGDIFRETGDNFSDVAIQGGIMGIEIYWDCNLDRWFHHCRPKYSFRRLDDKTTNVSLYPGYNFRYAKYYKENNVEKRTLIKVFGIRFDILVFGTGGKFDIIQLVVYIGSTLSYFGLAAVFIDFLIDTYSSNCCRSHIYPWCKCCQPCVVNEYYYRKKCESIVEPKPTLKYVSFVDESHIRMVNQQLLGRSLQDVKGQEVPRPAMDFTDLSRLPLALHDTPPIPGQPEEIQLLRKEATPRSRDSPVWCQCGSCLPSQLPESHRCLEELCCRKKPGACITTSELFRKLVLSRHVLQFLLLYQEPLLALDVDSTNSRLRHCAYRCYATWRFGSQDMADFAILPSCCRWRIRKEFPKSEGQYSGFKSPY
Experiment: YO-PRO assay: P2X7 receptor antagonistic activity in HEK cells stably expressing P2X7
Assay type: cell-based
Conditions: antagonistic activity with respect to the P2X7 receptor, read-out: IC50
Protocol: The P2X7 receptor antagonistic activity of the compounds of formula (I) is determined in accordance with the following experimental method.
Cell Line Generation and YO-PRO Assay
Cell line generation was performed in general according to established molecular cloning protocols. Specifically, RNA was extracted from human whole blood using the Qiagen RNeasy kit (Qiagen, CH) according to the manufacturer's instructions. Subsequently cDNA was made (Superscript II, Invitrogen AG, CH) and the human P2X7 gene (genbank ref. BC011913) was amplified with the following primers: […] and […]. The amplified sequence was subsequently ligated into a pcDNA3.1 (+) NotI, NheI digested plasmid. Human embryonic kidney (HEK) cells (ATCC CRL—1573, Manassas, Va., USA) were transfected with the pcDNA3.1 (+).hP2X7 plasmid using lipofectamine 2000 (Invitrogen AG, CH) according to the manufacturer's instructions. Following a 24 h exposure to DNA, cells were trypsinized and re-seeded at low density in the presence of 250 μg Geneticin. Geneticin resistant cells were then selected during two consecutive rounds of cloning by serial limiting dilution with visual inspection. Individual clones were screened for P2X7 expression by applying ATP and recording the resultant uptake of YO-PRO1. Specific cell clones were chosen based on RNA and protein expression. HEK cells stably expressing P2X7 were used to screen drugs using the YO-PRO1 assay. Cells were grown to confluency in adherent culture at 37° C. in a humidified 5% CO2 incubator (split 1/5 every 3-4 days with DMEM, 10% FCS, 1% Penicillin/Streptomycin, 250 μg/ml Geneticin). Adherent cells were detached by incubation with Trypsine (1 ml per 165 cm^2 dish) for 2 minutes, then washed off with 10 ml PBS (without Mg^2+ and Ca^2+), and resuspended in DMEM, 10% FCS, 1% Penicillin/Streptomycin, no Geneticin. 10′000 cells per well (48 hours before the assay) or 25′000 cells per well (Vi-cell XR (Beckman Coulter) (24 hours before the assay) in 50 μl full medium were seeded on 384-well black-wall, clear bottom plates, that were coated before with 10 μl per well Poly-L-Lysine, incubated for 30-60 minutes at 37° C. and washed once with PBS. Medium was removed from cells and 50 μl of assay buffer containing 0.5 μM YO-PRO-1 was added into the wells. Solutions of antagonist compounds were prepared by serial dilutions of a 10 mM DMSO solution of the antagonist into PBS using a BioMek (Beckman Coulter). Each concentration was performed in duplicate. For IC50 measurements 10 concentration points were measured (10 μM being the highest concentration followed by 9 serial dilution steps 1/3). The cells were incubated with the antagonists of the present invention together with ATP at a final concentration of 250 μM for 90 minutes. During this time period, four time points were taken. Each time point comprised the average of several measurements made within a few seconds. Fluorescence was measured in the FLIPR tetra (Molecular Devices) using the filters appropriate for YO-PRO-1 fluorescence (excitation 485/20, emission 530/25). The FLIPR tetra was equipped with Molecular Devices Screen Works system control software to define and run experimental protocols. […] For IC50 measurements the maximum intensity is plotted against the concentration of compound to determine IC50 values.

| IC50 | Structure (SMILES) |
| --- | --- |
| 102 nM | O=C(NCC(c1ccc(Oc2ccccc2)cc1)N1CCOCC1)c1ccc2[nH]ccc2c1Cl (racemic) [Example 58, rac-4-Chloro-1H-indole-5-carboxylic acid [2-morpholin-4-yl-2-(4-phenoxy-phenyl)-ethyl]-amide] |
| 5.1 nM | O=C(NCC(c1ccc(C(F)(F)F)nc1)N1CCOCC1)c1ccc2[nH]ccc2c1Cl (racemic) [Example 10, rac-4-Chloro-1H-indole-5-carboxylic acid [2-morpholin-4-yl-2-(6-trifluoromethyl-pyridin-3-yl)-ethyl]-amide] |
| 134 nM | O=C(NCC(c1ccc(OC(F)(F)F)cc1)N1CCOCC1)c1ccc2[nH]ccc2c1Cl (racemic) [Example 48, rac-4-Chloro-1H-indole-5-carboxylic acid [2-morpholin-4-yl-2-(4-trifluoromethoxy-phenyl)-ethyl]-amide] |
| 286 nM | Cc1ncc(C(CNC(=O)c2ccc3[nH]ccc3c2Cl)N2CCCC2)cn1 (racemic) [Example 14, rac-4-Chloro-1H-indole-5-carboxylic acid [2-(2-methyl-pyrimidin-5-yl)-2-pyrrolidin-1-yl-ethyl]-amide] |
| 149 nM | Cc1ncc(C(CNC(=O)c2cc(C(C)(C)O)c3[nH]ccc3c2Cl)N2CCOCC2)cn1 (racemic) [Example 116, rac-4-Chloro-7-(1-hydroxy-1-methyl-ethyl)-1H-indole-5-carboxylic acid [2-(2-methyl-pyrimidin-5-yl)-2-morpholin-4-yl-ethyl]-amide] |
| 32 nM | O=C(NCC(c1cccc(F)c1)N1CCOCC1)c1ccc2[nH]ccc2c1Cl (racemic) [Example 37, rac-4-Chloro-1H-indole-5-carboxylic acid [2-(3-fluoro-phenyl)-2-morpholin-4-yl-ethyl]-amide] |
| 257 nM | Cc1cnc(C(CNC(=O)c2ccc3[nH]ccc3c2Cl)N2CCOCC2)cn1 (racemic) [Example 63, rac-4-Chloro-1H-indole-5-carboxylic acid [2-(5-methyl-pyrazin-2-yl)-2-morpholin-4-yl-ethyl]-amide] |
| 85 nM | CCN(CC)C(CNC(=O)c1ccc2[nH]ccc2c1Cl)c1cnc(C)nc1 (racemic) [Example 15, rac-4-Chloro-1H-indole-5-carboxylic acid [2-diethylamino-2-(2-methyl-pyrimidin-5-yl)-ethyl]-amide] |
| 831 nM | Cc1ncc(C(CNC(=O)c2ccc3[nH]ccc3c2Cl)N2CCC2)cn1 (racemic) [Example 13, rac-4-Chloro-1H-indole-5-carboxylic acid [2-azetidin-1-yl-2-(2-methyl-pyrimidin-5-yl)-ethyl]-amide] |
| 2650 nM | Cc1ncc(C(CNC(=O)c2ccc3[nH]ccc3c2Cl)N(C)Cc2ccccc2)cn1 (racemic) [Example 87, rac-4-Chloro-1H-indole-5-carboxylic acid [2-(benzyl-methyl-amino)-2-(2-methyl-pyrimidin-5-yl)-ethyl]-amide] |
| 161 nM | Cn1cc(C(CNC(=O)c2ccc3[nH]ccc3c2Cl)N2CCCCC2)cn1 (racemic) [Example 29, rac-4-Chloro-1H-indole-5-carboxylic acid [2-(1-methyl-1H-pyrazol-4-yl)-2-piperidin-1-yl-ethyl]-amide] |
| 76 nM | O=C(NCC(c1ccc(Cl)nc1)C1CCCCC1)c1ccc2[nH]ccc2c1Cl (racemic) [Example 65, rac-4-Chloro-1H-indole-5-carboxylic acid [2-(6-chloro-pyridin-3-yl)-2-cyclohexyl-ethyl]-amide] |
| 447 nM | O=C(NCC(c1cccnc1)C1CCNCC1)c1ccc2[nH]ccc2c1Cl (racemic) [Example 20, rac-4-Chloro-1H-indole-5-carboxylic acid (2-piperidin-4-yl-2-pyridin-3-yl-ethyl)-amide dihydrochloride] |
| 889 nM | O=C(NCC(c1ccc(C(F)(F)F)cc1)N1CCCCC1)c1ccc2[nH]ccc2c1Cl (racemic) [Example 44, rac-4-Chloro-1H-indole-5-carboxylic acid [2-piperidin-1-yl-2-(4-trifluoromethyl-phenyl)-ethyl]-amide] |
| 16 nM | CCc1cc(C(=O)NCC(c2cnc(C)nc2)N2CCOCC2)c(Cl)c2cc[nH]c12 (single isomer, unassigned) [Example 119, 4-Chloro-7-ethyl-1H-indole-5-carboxylic acid [2-(2-methyl-pyrimidin-5-yl)-2-morpholin-4-yl-ethyl]-amide] |
| 118 nM | Cc1ncc(C(CNC(=O)c2cc(F)c3[nH]ccc3c2F)N2CCOCC2)cn1 (racemic) [Example 117, rac-4,7-Difluoro-1H-indole-5-carboxylic acid [2-(2-methyl-pyrimidin-5-yl)-2-morpholin-4-yl-ethyl]-amide] |
| 301 nM | O=C(NCC(c1c(F)cc(F)cc1F)N1CCOCC1)c1ccc2[nH]ccc2c1Cl (racemic) [Example 33, rac-4-Chloro-1H-indole-5-carboxylic acid [2-morpholin-4-yl-2-(2,4,6-trifluoro-phenyl)-ethyl]-amide] |
| 61 nM | O=C(NCC(c1ccc(F)cc1F)N1CCOCC1)c1ccc2[nH]ccc2c1Cl (racemic) [Example 34, rac-4-Chloro-1H-indole-5-carboxylic acid [2-(2,4-difluoro-phenyl)-2-morpholin-4-yl-ethyl]-amide] |
| 6.8 nM | Cc1ncc(C(CNC(=O)c2ccc3[nH]ccc3c2Cl)N2CCC(F)(F)CC2)cn1 (single isomer, unassigned) [Example 6, 4-Chloro-1H-indole-5-carboxylic acid [2-(4,4-difluoro-piperidin-1-yl)-2-(2-methyl-pyrimidin-5-yl)-ethyl]-amide] |
| 14 nM | COc1ccc(C(CNC(=O)c2ccc3[nH]ccc3c2Cl)N2CCOCC2)cn1 (racemic) [Example 11, rac-4-Chloro-1H-indole-5-carboxylic acid [2-(6-methoxy-pyridin-3-yl)-2-morpholin-4-yl-ethyl]-amide] |
| 56 nM | CS(=O)(=O)N1CCC(C(CNC(=O)c2ccc3[nH]ccc3c2Cl)c2cccnc2)CC1 (racemic) [Example 23, rac-4-Chloro-1H-indole-5-carboxylic acid [2-(1-methanesulfonyl-piperidin-4-yl)-2-pyridin-3-yl-ethyl]-amide] |
| 15 nM | CCC(CC)C(CNC(=O)c1ccc2[nH]ccc2c1Cl)c1cncnc1 (racemic) [Example 88, rac-4-Chloro-1H-indole-5-carboxylic acid (3-ethyl-2-pyrimidin-5-yl-pentyl)-amide] |
| 39 nM | O=C(NCC(c1cccnc1)N1CCCCC1)c1ccc2[nH]ccc2c1Cl (racemic) [Example 46, rac-4-Chloro-1H-indole-5-carboxylic acid (2-piperidin-1-yl-2-pyridin-3-yl-ethyl)-amide] |
| 455 nM | O=C(NCC(c1ccc(Cl)cc1Cl)N1CCOCC1)c1ccc2[nH]ccc2c1Cl (racemic) [Example 39, rac-4-Chloro-1H-indole-5-carboxylic acid [2-(2,4-dichloro-phenyl)-2-morpholin-4-yl-ethyl]-amide] |
